Laboratory results taken from publication PMC5444695, “CM363, a novel naphthoquinone derivative which acts as multikinase modulator and overcomes imatinib resistance in chronic myelogenous leukemia” (Oncotarget, 2016).
Entries after “also recorded” stand apart in the source; their conditions may differ. Where two headings read alike, the source gives them in different places.

Assays:
PC3 cells = assay: MTT cell viability assay, PC3 cells; type: cell-based; conditions: Homo sapiens, PC-3, PC3, 48 h, read-out: IC50 (μM) Mean ± SD
Protocol: (§1) All cell lines were purchased from the American Type Culture Collection (ATCC). The cell lines were growth at 37°C under 5% CO2 under humidified atmosphere. The cell lines K562 (derived from patients during the blast crisis phase of CML and IM sensitive), K562-R (IM resistance human CML), KmycBT15I (KBTI; IM resistant human CML, expressing the Bcr-Abl […] mutant), HEL (human erythroleukemia), HL60 (human acute myeloid leukemia), MOLM-13 (human acute myeloid leukemia), MV4.11 (human acute monocytic leukemia), HCT-15 (human colorectal adenocarcinoma), PC3 (human prostate cancer), MCF7 (human breast cancer), NCTC3749 (mouse lymphoma) as well as the MRC.5 cells (non-malignant human lung fibroblasts) were maintained in RPMI-1640 medium. The cell lines L1210 (mouse lymphocytic leukemia cells), Raw (mouse macrophage), HeLa (human epithelial cervix cancer), U-2 OS (human osteosarcoma), MG63 (human osteosarcoma) and T47D (human breast cancer adenocarcinoma) were maintained in DMEM. HEK293 cells stably expressing the GH receptor (HEKGHR) were maintained in DMEM-F12 medium. […]
(§2) Cells were seeded in 96-well plates (BD Falcon, France) at exponential growth density (5000–20000 cells/well) and treated with vehicle (0.05% DMSO) or compound (0.01 to 10 μM) for 48–72 h. […] Optical density was measured at 595 nm with the iMark Microplate Reader (BioRad, CA, USA).

MV4.11 cells = assay: MTT cell viability assay, MV4.11 cells; type: cell-based; conditions: Homo sapiens, MV4.11, 48 h, read-out: IC50 (μM) Mean ± SD
Protocol: as §1, §2

K562 cells = assay: Live-cell imaging (IncuCyte HD) of proliferation and cytotoxicity, K562 cells; type: cell-based, human; conditions: Homo sapiens
Protocol: (§3) Kinetic measurements of cell proliferation and cytotoxicity were carried out by using the IncuCyte^TM HD real time imaging system (Essen BioScience, Hertfordshire, United Kingdom). After seeding in a polylysine-coated 96 well-plates, K562 cells were treated with different concentrations of compound. This IncuCyte™ microscope permits the acquisition of automated phase contrast images. Individual images are processed by an imbedded contrast-based confluence algorithm, which compute monolayer confluence for each image and at each time point. Multiple images are collected per well and averaged to provide a representative statistical measure of confluence.

[1] = as above; type: cell-based, human; conditions: human, K562 cells; K562, continuous exposure over 4-day period, area under curve; read-out: EC50AUC, cytotoxic effect
Protocol: as §3

HCT-15 cells = assay: MTT cell viability assay, HCT-15 cells; type: cell-based; conditions: Homo sapiens, HCT-15, 48 h, read-out: IC50 (μM) Mean ± SD
Protocol: as §1, §2

Stat5 response element = assay: Stat5 luciferase reporter gene assay in HEKGHR cells; type: cell-based; conditions: 1 h pretreatment then GH 7 h
Protocol: The HEKGHR cell line was used to determine the effects of compounds on GH-regulated Stat5 transcriptional activity. HEKGHR cells were transfected with pSPI-GLE1-Luc (1 μg) overnight using Metafectene Pro® (Biontex, Germany). The β-galactosidase expression plasmid (0.05 μg) (Thermo Scientific, Illinois, USA) was used for controlling transfection efficiency. The stable reporter cell line HeLa/Stat3-luc (Panomics, Fremont, USA), was used to determine the effects of compounds on oncostatin M-regulated Stat3 transcriptional activity. Cells were seeded in a 6-well culture plate (Nunc, Denmark) and they were serum deprived (0.5% FBS) for 16 h. Then, cells were treated with vehicle (0.05% DMSO) or compound (0.1 to 10 μM) during 1 h before rhGH (50 nM) or oncostatin M (50 ng/ml) were added for 7 h for induction of Stat5- or Stat3-dependent transcriptional activities, respectively. Cells were lysed in Passive Lysis Buffer and luciferase activity was determined by the Luciferase Assay System (Thermo Scientific, Illinois, USA). Luciferase activity was measured using the microplate reader Fluoroskan Ascent FL (Labsystems). Results are expressed as relative luciferase units (RLU) per mg of protein content and β-galactosidase activity and normalized to those obtained for vehicle-treated control cells.

HL60 cells = assay: MTT cell viability assay, HL60 cells; type: cell-based; conditions: Homo sapiens, HL-60, HL60, 48 h, read-out: IC50 (μM) Mean ± SD
Protocol: as §1, §2

KBTI cells = assay: Viability of IM-resistant KBTI cells; type: cell-based; conditions: IM-resistant KBTI human cells, data not shown
Protocol: as §1, §2

Stat3 response element = assay: Stat3 luciferase reporter gene assay in HeLa/Stat3-luc cells; type: cell-based; conditions: 1 h pretreatment then IL6 7 h
HEK cells = assay: MTT cell viability assay, HEK cells; type: cell-based; conditions: Homo sapiens, HEK293, 48 h, read-out: IC50 (μM) Mean ± SD
Protocol: as §1, §2

HEL cells = assay: MTT cell viability assay, HEL cells; type: cell-based; conditions: Homo sapiens, 48 h, read-out: IC50 (μM) Mean ± SD
Protocol: as §1, §2

U-2 OS cells = assay: MTT cell viability assay, U-2 OS cells; type: cell-based; conditions: Homo sapiens, U2OS, 48 h, read-out: IC50 (μM) Mean ± SD
Protocol: as §1, §2

K562 tumor xenografts = K562 tumor xenografts in NOD-SCID mice; type: in vivo; conditions: CM363 10 mg/kg i.p., 25 days, P = 0.004 day 4, P = 0.007 day 25
Protocol: Six weeks old female athymic mice (NOD-SCID), were purchased from Charles River River (Barcelona, Spain), and were housed in a specifically designed pathogen-free isolation facility as reported previously. […] The vehicle and CM363 treatments were administered via intraperitoneal injection (i.p.) every day except Saturday and Sunday. […] The study was conducted over a 25 days period. Caliper measurements of the tumor diameters were performed twice per week, and the tumor volume was estimated as the volume of an ellipse using the following formula: V = 4/3n × (a/2) × (b/2)^2, where a and b correspond to the longest and shortest diameter, respectively. Mice were sacrificed when their tumor diameters reached 2 cm, or when they became moribund. Differences in tumor volumes between control and treated group were evaluated using the Mann-Whitney test.

pYStat5 = assay: GM-CSF-induced pYStat5 in primary mouse macrophages; type: cell-based; conditions: 3 μM CM363 for 0.5 h, data not shown

N#Cc1ccc(C2C3=C(CCCC3=O)OC3=C2C(=O)c2ccccc2C3=O)cc1 (stereo not drawn) [CM363, 4-(1,6,11-trioxo-2,3,4,6,11,12-hexahydro-1H-benzo[b]xanthen-12-yl)benzonitrile]
IC50 (PC3 cells): 1.5 ± 1 µM
IC50 (MV4.11 cells): 1.2 ± 1.1 µM
IC50 (K562 cells; 96 h, IM sensitive K562, continuous exposure over 4-day period, area under curve, read-out: IC50AUC, cytostatic effect on cell growth): 600 ± 300 nM
IC50 (K562 cells; K562, 2 h transient exposure, then additional 72 h without compound, read-out: IC50AUC, cytostatic effect after transient exposure): 1900 ± 500 nM
EC50 at 4 days [1]: 1100 ± 400 nM
IC50 (HCT-15 cells): 3.3 µM
Stat5-dependent reporter gene (luciferase) activity (Stat5 response element): inhibit
IC50 (HL60 cells): 1.3 ± 0.6 µM
sensitivity of KBTI cells (KBTI cells): partial resistance
Stat3-dependent reporter gene (luciferase) activity (Stat3 response element): inhibit
IC50 (HEK cells): 0.6 ± 0.2 µM
IC50 (HEL cells): 1.3 ± 0.3 µM
IC50 (U-2 OS cells): 4.3 ± 1.2 µM
tumor growth (tumor volume) versus control group (K562 tumor xenografts): suppressed the growth; also recorded: pronounced, and statistically significant reduction
inhibition of GM-CSF-induced (10 min) pYStat5 (pYStat5): complete inhibition
